The values that follow are results of earlier work, collected in patent publication US10500227B2, “Bioactive gas-encapsulated echogenic liposomes and methods for treating cardiovascular disease” (University of Cincinnati, priority 2014, dated 2019).

`[N]=O` [NO, nitric oxide]: the diffusivity result (in muscular tissue) is reported as “roughly 3,300 μm^2 per second”. Also, the half-life (in the presence of hemoglobin and oxygen in vivo) is less than 1 s.

The half-life is the time in which the quantity being followed falls by half.
